Earlier results in article PMC6892276 (European Journal of Pharmaceutical Sciences, 2019).

What was measured:
Caco-2 = test system: Caco-2; set-up: method as in Bavetsias et al., 2012; settings: ref Bavetsias et al., 2012, cited from earlier work
[1] = test system: histone H-3 and STAT5 phosphorylation; set-up: method as in Bavetsias et al., 2012; settings: p.o. 50 and 100 mg/kg b.i.d., 4-day mouse PK/PD study; ref Bavetsias et al., 2012; cited from earlier work

Q: Which efflux (Caco-2; Caco-2) does the source give for `Cc1nn(C)cc1-c1nc2c(N3CCN(Cc4ccc(Cl)cc4)CC3)c(Cl)cnc2[nH]1` [CCT241736, 6-Chloro-7-(4-(4-chlorobenzyl)piperazin-1-yl)-2-(1,3-dimethyl-1Hpyrazol-4-yl)-3H-imidazo[4,5-b] pyridine] here?
A: Its efflux is “no evidence of efflux”.

Q: What about the Caco-2 permeability (Caco-2) of the same molecule?
A: The Caco-2 permeability was 18.6 ×10⁻⁶ cm/s.

Q: And the “biomarker modulation (histone H-3 and STAT5 phosphorylation)” value [1]?
A: Its value is “biomarker modulation”.
